Test results: ChEMBL document CHEMBL1147417, “Synthesis of new thiophene and benzo[b]thiophene hydrazide derivatives as human NPY Y(5) antagonists” (Bioorg Med Chem Lett, 2004)

Assays:
[1] = biological target: T1, Neuropeptide Y receptor type 1 (Homo sapiens, UniProt P25929); assay: Human Neuropeptide Y1 receptor binding affinity
T1 sequence (P25929 whole entry): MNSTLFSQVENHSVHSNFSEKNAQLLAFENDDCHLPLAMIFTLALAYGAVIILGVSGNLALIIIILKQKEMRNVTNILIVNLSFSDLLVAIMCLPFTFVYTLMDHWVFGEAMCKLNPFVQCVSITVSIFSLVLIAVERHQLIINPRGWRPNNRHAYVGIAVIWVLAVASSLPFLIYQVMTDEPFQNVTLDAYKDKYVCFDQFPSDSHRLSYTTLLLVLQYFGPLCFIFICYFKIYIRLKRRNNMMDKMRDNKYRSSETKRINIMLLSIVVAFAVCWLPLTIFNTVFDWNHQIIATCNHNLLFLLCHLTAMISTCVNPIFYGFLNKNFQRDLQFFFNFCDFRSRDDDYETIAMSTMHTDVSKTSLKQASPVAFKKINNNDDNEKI

[2] = biological target: T2, Neuropeptide Y receptor type 5 (Homo sapiens, UniProt Q15761); assay: Human Neuropeptide Y5 receptor binding affinity
T2 sequence (Q15761 whole entry): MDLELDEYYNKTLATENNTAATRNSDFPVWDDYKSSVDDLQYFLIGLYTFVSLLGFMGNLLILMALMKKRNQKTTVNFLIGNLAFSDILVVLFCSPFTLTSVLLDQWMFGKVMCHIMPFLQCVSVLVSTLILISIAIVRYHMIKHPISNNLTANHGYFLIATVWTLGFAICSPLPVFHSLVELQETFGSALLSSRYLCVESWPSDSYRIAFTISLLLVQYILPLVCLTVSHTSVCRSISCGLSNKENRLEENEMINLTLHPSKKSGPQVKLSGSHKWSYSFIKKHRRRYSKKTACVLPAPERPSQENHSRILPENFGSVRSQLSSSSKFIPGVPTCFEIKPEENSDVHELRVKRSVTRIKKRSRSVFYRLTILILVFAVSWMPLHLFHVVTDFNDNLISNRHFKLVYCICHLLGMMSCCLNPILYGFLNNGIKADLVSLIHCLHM

Row | IC50 [1] [nM] | IC50 [2] [nM] | SMILES
1 | > 10000 | 92.2 | O=C(NNC(=O)[C@H]1CC[C@H](CNS(=O)(=O)c2cccc3cccnc23)CC1)c1cc2ccccc2s1
2 | > 10000 | 279 | O=C(NNC(=O)[C@H]1CC[C@H](CNS(=O)(=O)c2ccc(Cl)cc2)CC1)c1cc2ccccc2s1
3 | > 10000 | 7.7 | O=C(NNC(=O)[C@H]1CC[C@H](CNS(=O)(=O)c2ccc(Br)cc2)CC1)c1cccs1
4 | > 10000 | 32.2 | O=C(NNC(=O)[C@H]1CC[C@H](CNS(=O)(=O)c2ccccc2)CC1)c1cccs1
5 | > 10000 | 12.5 | O=C(NNC(=O)[C@H]1CC[C@H](CNS(=O)(=O)c2cccs2)CC1)c1cccs1
6 | > 10000 | 11.5 | O=C(NNC(=O)[C@H]1CC[C@H](CNS(=O)(=O)c2cccs2)CC1)c1cc2ccccc2s1
7 | > 10000 | 175 | O=C(NNC(=O)[C@H]1CC[C@H](CNS(=O)(=O)c2ccccc2)CC1)c1cc2ccccc2s1
8 | > 10000 | 48.4 | O=C(NNC(=O)[C@H]1CC[C@H](CNS(=O)(=O)c2ccc(Cl)cc2)CC1)c1cccs1
9 | > 10000 | 28.4 | O=C(NNC(=O)[C@H]1CC[C@H](CNS(=O)(=O)c2ccc(Br)cc2)CC1)c1cc2ccccc2s1
10 | > 10000 | 147 | O=C(NNC(=O)[C@H]1CC[C@H](CNS(=O)(=O)c2cccc3cccnc23)CC1)c1cccs1
11 | > 10000 | 42.9 | Cc1ccc(S(=O)(=O)NC[C@H]2CC[C@H](C(=O)NNC(=O)c3cc4ccccc4s3)CC2)cc1
12 | > 10000 | 20.4 | Cc1ccc(S(=O)(=O)NC[C@H]2CC[C@H](C(=O)NNC(=O)c3cccs3)CC2)cc1
13 | > 10000 | 142 | CC(C)c1cc(C(C)C)c(S(=O)(=O)NC[C@H]2CC[C@H](C(=O)NNC(=O)c3cc4ccccc4s3)CC2)c(C(C)C)c1
14 | > 10000 | 47.7 | CC(C)c1cc(C(C)C)c(S(=O)(=O)NC[C@H]2CC[C@H](C(=O)NNC(=O)c3cccs3)CC2)c(C(C)C)c1
